The data set can be described thus: Solubility of the ingredient in water (description). Format: physicochemical. To be noted: white fluffy powder.

Where a SMILES comes first, the peptide text is derived from it. Bridges are numbered along the chain shown (N, C = ends).

Consider `CC(C)C[C@H](NC(=O)[C@H](CCCCN)NC(=O)CNC(=O)[C@H](CC(C)C)NC(=O)[C@@H](NC(=O)[C@@H]1CSSC[C@H](N)C(=O)N[C@@H](CO)C(=O)N[C@@H](CC(N)=O)C(=O)N[C@@H](CC(C)C)C(=O)N[C@@H](CO)C(=O)N[C@@H]([C@@H](C)O)C(=O)N1)C(C)C)C(=O)N[C@@H](CO)C(=O)N[C@@H](CCC(N)=O)C(=O)N[C@@H](CCC(=O)O)C(=O)N[C@@H](CC(C)C)C(=O)N[C@@H](Cc1c[nH]cn1)C(=O)N[C@@H](CCCCN)C(=O)N[C@@H](CC(C)C)C(=O)N[C@@H](CCC(N)=O)C(=O)N[C@H](C(=O)N[C@@H](Cc1ccc(O)cc1)C(=O)N1CCC[C@H]1C(=O)N[C@@H](CCCNC(=N)N)C(=O)N[C@H](C(=O)N[C@@H](CC(=O)O)C(=O)N[C@H](C(=O)NCC(=O)N[C@@H](C)C(=O)NCC(=O)N[C@H](C(=O)N1CCC[C@H]1C(N)=O)[C@@H](C)O)C(C)C)[C@@H](C)O)[C@@H](C)O` [eel calcitonin, eel calcitonin (synthetic)] (H-CSNLSTCVLGKLSQELHKLQTYPRTDVGAGTP-NH2; disulfide 1-7), for which the Solubility in water result is “easily soluble in water”.

Source of the values: patent US5310727A, “Pharmaceutical compositions for parenteral use containing a calcitonin as the active ingredient” (Scalvo S.p.A., priority 1986, dated 1994).
